From patent US8257714B2, “Compositions and methods for immunotherapy of cancer and infectious diseases” (priority 2003, dated 2012)
Ends that are not written are not given here.

B1: KC: chemokine (protein, UniProt P12850 25-96, looked up)
Growth-regulated alpha protein: APIANELRCQCLQTMAGIHLKNIQSLKVLPSGPHCTQTEVIATLKNGREACLDPEAPLVQKIVQKMLKGVPK
B2: IL-11: interleukin (protein, UniProt P20809 22-199, looked up)
Interleukin-11: PGPPPGPPRVSPDPRAELDSTVLLTRSLLADTRQLAAQLRDKFPADGDHNLDSLPTLAMSAGALGALQLPGVLTRLRADLLSYLRHVQWLRRAGGSSLKTLEPELGTLQARLDRLLRRLQLLMSRLALPQPPPDPPAPPLAPPSSAWGGIRAAHAILGGLHLTLDWAVRGLLLLKTRL
B3: IL-7: interleukin (protein, UniProt P10168 26-154, looked up)
Interleukin-7: ECHIKDKEGKAYESVLMISIDELDKMTGTDSNCPNNEPNFFRKHVCDDTKEAAFLNRAARKLKQFLKMNISEEFNVHLLTVSQGTQTLVNCTSKEEKNVKEQKKNDACFLKRLLREIKTCWNKILKGSI
B4: MIP-1 α: chemokine (protein, UniProt P10147 24-92, looked up)
C-C motif chemokine 3: SLAADTPTACCFSYTSRQIPQNFIADYFETSSQCSKPGVIFLTKRSRQVCADPSEEWVQKYVSDLELSA
B5: IL-4: interleukin (protein, UniProt P07750 21-140, looked up)
Interleukin-4: HIHGCDKNHLREIIGILNEVTGEGTPCTEMDVPNVLTATKNTTESELVCRASKVLRIFYLKHGKTPCLKKNSSVLMELQRLFRAFRCLDSSISCTMNESKSTSLKDFLESLKSIMQMDYS

Each molecule was assayed on Mouse sarcoma 180 cells (assay: NK cell-mediated cytotoxicity (NK-CMC) assay, LGL/S180 co-culture). Conditions: wide range of concentrations, presence and absence of IL-2 (125 U/ml).
Format: cell-based
Description: In one embodiment, a NK cell assay is used to assess ARP-induced cytotoxic activity of NK-like cells (see section 12.2). Briefly, by way of example but not limitation, a NK cell assay can be carried out as follows: large granular lymphocytes (LGLs) are co-cultured with tumor cells at various ratios (effector to target ratio) for four days at 37° C., 5% CO2. […] The culture is terminated at the end of day 4 and vitally stained using a MTT cell viability quantification assay (see Mossman, T. J. Immunol. Methods 65: 55 (1983); and Sigma Chemical MTT (M5655) product application note). Culture media is aspirated and the remaining cells are washed and replaced with DMEM/F12 plus FCS, containing MTT. The cells are further incubated for 4-5 hours at 37° C. Absorbance is measured with the aid of a plate reader. Decreased absorbance indicated a decrease in the number of viable cells per well (i.e., cytotoxicity). Absorbance is measured again after the MTT is solubilized by replacement of the medium with 2-propanol containing HCl, which gives a uniform color throughout the well. NK-inducing activity is calculated relative to negative (PBS/BSA) and positive (internal standard) controls.
Spleens (10-15 per experiment) were aseptically removed from male Balb/C mice 6-10 weeks of age. Splenocytes were “squeezed” out of spleens using 2 sterile glass microscope slides. Cells were collected in approximately 10 ml of DMEM/F 12 containing 10% fetal calf serum (FCS) and gentamicin (50 μg/ml). Single cell suspensions were generated by passing collected cells through a 70 μm nylon mesh screen. After washing the cell pellet once with PBS (centrifuged at 675×g for 5 min), red blood cells were lysed by brief hypotonic shock (i.e. exposure to sterile distilled, deionized water, followed immediately with appropriate volumes of 10×PBS to return to isotonicity). Remaining cells were centrifuged and resuspended in DMEM/F12+10% FCS and transferred to 75 cm^2 flasks each containing 25 mls DMEM/F12+10% FCS (cells from 5 spleens per flask). The cells were incubated for 60 min. at 37° C. to selectively remove readily adherent cells (mainly fibroblasts and macrophages). After the incubation, the flasks were gently shaken and the non-adherent cells were removed, pelleted by centrifugation, and resuspended in DMEM/F12 (no supplements) (1.0 mL/10^8 cells). A 1.0 mL volume of these cell suspensions were carefully layered onto a 70%/60%/40% (2 mL/4 mL/4 mL) Percoll™ gradients in 15 ml centrifuge tubes and centrifuged for 30 min at 675×G. The cells which sediment at the 40/60 interface represent primarily large granular lymphocytes (LGLs), enriched with NK cells. These cells were carefully removed with a pasteur pipet, centrifuged, washed once with PBS and resuspended in approximately 5 mL DMEM/F12 supplemented with gentamicin (50 μg/mL) and 10% fetal calf serum. Cell counts and appropriate dilutions of LGL cells were made with these cells, as described below. For convenience this LGL cell preparation is interchangeably referred to as NK cells.
Mouse sarcoma 180 cells were seeded into 96 well plates at a density of 5×10^3 cells per well in 100 μl DMEM/F12, supplemented with 10% FCS and gentamicin (50 μg/mL). […] NK cells were added in 100 μL of supplemented DMEM/F12 at designated densities: 0 NK cells/well; 5×10^4 NK cells/well (1:10 target/effector ratio); 1.25×10^5 NK cells/well (1:25 target/effector ratio); 2.5×10^5 NK cells/well (1:50 target/effector ratio); and, 5×10^5 NK cells/well (1:100 target/effector ratio). (Note: routinely, only the 1:50 and 1:100 ratios were used for screening purposes. IL2 was added as a media supplement with final concentration of 125 U/mL.). Co-cultures were incubated for 4 days at 37° C., 5% CO2, and terminated and vitally stained using a MTT cell viability quantification assay (see Mossman, T. J. Immunol. Methods 65:55 (1983); and Sigma Chemical MTT (M5655) product application note). […]

Row | Molecule | NK-CMC Activity
1 | Magainin I | −
2 | IL-15: interleukin | −
3 | Cecropin B: defensin / anti-microbial peptide (KWKVFKKIEKMGRNIRNGIVKAGPAIAVLGEAKAL; ends and bridges not checked; UniProt P01508 27-61, looked up) | −
4 | Cecropin A: defensin / anti-microbial peptide (KWKLFKKIEKVGQNIRDGIIKAGPAVAVVGQATQIAK; UniProt P01507 27-63, looked up) | −
5 | TGF α: growth factor | −
6 | IFN α | −
7 | JE/MCP-1: chemokine | −
8 | Magainin II | −
9 | Cecropin P1 | −
10 | B1 | −
11 | B2 | −
12 | B3 | −
13 | B4 | −
14 | B5 | −
